# Laboratory results reported in patent US20210213010A1, “TLR7/8 AGONISTS AND LIPOSOME COMPOSITIONS” (Torque Therapeutics, Inc., priority 2018, published 2021).
# “And” between values parts separate entries of the source, which are not always exact repeats. Equal entries are not always repeated.
# Key:
# RAW-Blue cells = experiment: NF-κB induction in RAW-Blue reporter cells (RAW 264.7 macrophages, SEAP); assay type: cell-based; details: for EC50: RAW-Blue, sigmoidal 4PL fitting, 24 h; for Potency in the RAW-Blue cell assay: compared with R848
# Description: This example describes the general procedure used to assess the compounds' potency to induce NF-κB expression in RAW 264.7 macrophages cells that stably express secreted embryonic alkaline phosphatase (SEAP) upon induction of NF-κB. RAW-Blue™ reporter cells are commonly used for quantifying TLR7/8 agonist potencies in reporter cell assays. Conversely, we used RAW-Blue™ cells to evaluate the potencies of the synthesized derivatives, as previously reported^1. ^1 Ryu et al, J. Am. Chem. Soc. (2014), 136, 10823-10825
# RAW 264.7 assays were carried out using RAW-Blue™ cells and QUANTI-Blue™ detection solution (Invivogen, Toulouse, France, at. #raw-sp and rep-qbs respectively). The assays carried out according to the protocol from Invivogen. RAW 264.7 macrophages were cultured in DMEM high glucose (4.5 g/L) supplemented with 10% (v/v) FBS, 1% (v/v) P/S, and Normocin™ (100 μg/ml). On the day of the study, the cells were seeded in a 96-well plate (ThermoFisher Scientific, Roskilde, Denmark) with 20 μL TLR7/8 agonist solutions per well at varying concentrations by adding 180 μL cell suspension, made by suspending cells to 0.55×10^6 cells per mL in the prepared cell medium added Zeocin™ (200 μg/ml), leading to a final concentration of 100×10^3 cells per well in triplicates. Cells were incubated with the TLR7/8 agonists, diluted from 10 mM DMSO stocks in PBS, at 37° C. with 5% CO2 for 24 h for SEAP production. 50 μL SEAP containing cell supernatant from each well was added 150 μL QUANTI-Blue™ detection solution and was incubated at 37° C. for 3-6 h. The resulting response was quantified spectrophotometrically at 640 nm and was normalized to the signal from a blank sample (DMSO dilution) run in parallel.
# Half maximal effective concentration (EC50) values were determined from sigmoidal 4PL fittings from the resulting dose-response curves in GraphPad Prism.
# mTLR7 = molecular target: T1, mTLR7 (Mus musculus, UniProt P58681); experiment: NF-κB induction in HEK-Blue mTLR7 reporter cells; assay type: cell-based; details: free compounds, 16 h
# T1 construct: host or cells: HEK-Blue (HEK293-derived) reporter cells
# T1 sequence (P58681 27-1050): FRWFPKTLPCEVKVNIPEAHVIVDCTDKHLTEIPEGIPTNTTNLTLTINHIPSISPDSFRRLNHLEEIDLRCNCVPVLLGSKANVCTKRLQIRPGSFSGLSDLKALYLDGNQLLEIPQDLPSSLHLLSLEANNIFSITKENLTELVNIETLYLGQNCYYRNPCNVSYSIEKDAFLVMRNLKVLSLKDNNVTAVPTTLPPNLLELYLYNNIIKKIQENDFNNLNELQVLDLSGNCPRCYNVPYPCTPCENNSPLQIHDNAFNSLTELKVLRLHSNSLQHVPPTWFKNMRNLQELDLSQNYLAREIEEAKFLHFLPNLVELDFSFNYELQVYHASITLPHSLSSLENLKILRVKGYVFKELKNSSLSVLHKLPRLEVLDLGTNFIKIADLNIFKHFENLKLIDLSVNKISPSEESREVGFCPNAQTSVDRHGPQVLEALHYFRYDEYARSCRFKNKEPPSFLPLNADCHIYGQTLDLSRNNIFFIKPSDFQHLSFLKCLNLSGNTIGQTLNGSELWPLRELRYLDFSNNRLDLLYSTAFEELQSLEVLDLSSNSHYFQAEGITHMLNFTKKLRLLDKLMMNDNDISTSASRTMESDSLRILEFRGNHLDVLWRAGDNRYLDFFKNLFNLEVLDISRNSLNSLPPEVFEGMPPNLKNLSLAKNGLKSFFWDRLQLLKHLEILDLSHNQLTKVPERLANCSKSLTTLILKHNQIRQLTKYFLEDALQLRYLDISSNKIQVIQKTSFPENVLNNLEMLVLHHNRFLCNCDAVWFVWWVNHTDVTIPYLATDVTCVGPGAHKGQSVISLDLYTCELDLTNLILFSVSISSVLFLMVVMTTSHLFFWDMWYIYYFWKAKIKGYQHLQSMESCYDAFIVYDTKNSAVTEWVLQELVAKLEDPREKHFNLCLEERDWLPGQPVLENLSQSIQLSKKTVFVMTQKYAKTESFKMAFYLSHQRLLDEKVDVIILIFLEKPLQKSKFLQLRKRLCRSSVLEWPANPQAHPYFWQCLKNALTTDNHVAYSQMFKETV
# Description: This example describes the general procedure used to assess the compounds' potency to induce NF-κB expression in human embryonic kidney (HEK) cells. The transcription factor NF-κB is expressed upon stimulation of TLR7/8 and is commonly used for quantifying TLR7/8 agonist potencies in reporter cell assays. Conversely, we used HEK-Blue mTLR-7 cells to evaluate the potencies of the synthesized derivatives, as previously reported (Shukla et al, J. Med. Chem. (2010), 53, 4450-4465).
# HEK-Blue TLR7 assays were carried out using HEK-Blue™ mTLR7 cells (Invivogen, Toulouse, France, Cat. #hkb-mtlr7). The assays were carried out according to the protocol from Invivogen. TLR expressing cells were cultured in DMEM high glucose (4.5 g/L) supplemented with 10% (v/v) fetal bovine serum (FBS) and 1% (v/v) penicillin-streptomycin (P/S) to 50 U/ml penicillin and […] streptomycin. On the day of the study, the cells were seeded in a 96-well plate (ThermoFisher Scientific, Roskilde, Denmark) with 20 μL imidazoquinoline TLR7/8 agonist solutions per well at varying concentrations by adding 180 μL cell suspension, made by suspending cells to 0.22×10^6 cells per mL in HEK-Blue™ Detection medium (Invivogen, Cat. #hb-det2) added Blasticidin (10 μg/ml) and Zeocin™ (100 μg/ml), leading to a final concentration of 40×10^3 cells per well in triplicates. Cells were incubated with the imidazoquinoline TLR7/8 agonists, formulated in liposomes or dissolved in PBS, at 37° C. with 5% CO2 for 16 h. The response was quantified spectrophotometrically at 655 nm and was normalized to the signal from a blank sample (DMSO dilution) run in parallel.
# [1] = Remote loading efficiency of small molecules into liposomes (PD-10 size exclusion, HPLC); assay type: physicochemical; details: mean (SD), n = 2
# Procedure: A solution of the small molecule (modified TLR agonist) was lyophilized in a vial equipped with a magnetic stir bar over night to form a fluffy white powder. This powder was added either formulation F1 or F2 to the wanted drug/lipid ratio. The resulting mixture was stirred at 55° C. or 41° C. for formulation F1 and F2 respectively for 3h, then allowed to cool to rt before the solutions were refrigerated and stored at 4° C.
# Remote loading efficiency was determined at 1 h and 3 h by taking out 100 μL of the mixture and applying this and 900 μL buffer (25 mM HEPES, 10 vol % sucrose buffer, pH 7.4) to a PD-10 column size exclusion column. Following, 10×1 mL fractions were collected, and the small molecule compound concentrations in the loading mixture and in the liposome containing fractions were determined on analytical HPLC. Loading efficiency was calculated as percentage of molecules found in liposome containing fractions out of the applied amount. The general procedure for the small molecule remote loading is visualized in FIG. 3. The general concept of remote loading imidazoquinolines in liposomes that are dialyzed against HEPES is visualized in FIG. 4.
# [2] = formulation F3, drug/lipid ratio 0.10, 1 h
# [3] = formulation F3, drug/lipid ratio 0.10, 3 h
EC50 (RAW-Blue cells),"Remote loading efficiency 1 h (%) [1, 2]","Remote loading efficiency 3 h (%) [1, 3]","Remote loading efficiency 1 h (%) ([1]; formulation F3, drug/lipid ratio 0.25, 1 h)","Remote loading efficiency 3 h (%) ([1]; formulation F3, drug/lipid ratio 0.25, 3 h)","Remote loading efficiency 1 h (%) ([1]; formulation F3, drug/lipid ratio 0.50, 1 h)","Remote loading efficiency 3 h (%) ([1]; formulation F3, drug/lipid ratio 0.50, 3 h)",Structure (SMILES),Potency in the RAW-Blue cell assay (RAW-Blue cells),TLR7 agonist activity (NF-κB induction) (mTLR7)
0.04 µM,94.1 (2.9) %,88.4 (1.5) %,–,–,–,–,"CCCCc1nc2c(N)nc3ccccc3c2n1Cc1ccc(CNC(=O)[C@@H](N)[C@@H](C)CC)cc1 [MK146, (2S,3S)-2-amino-N-(4-((4-amino-2-butyl-1H-imidazo[4,5-c]quinolin-1-yl)methyl)benzyl)-3-methylpentanamide]",greater potencies than R848,potencies that were higher or comparable to that of R848
0.03 µM,97.2 (4.0) %,92.4 (3.9) %,–,–,–,–,"CCCCc1nc2c(N)nc3ccccc3c2n1Cc1ccc(CNC(=O)[C@@H](N)C(C)C)cc1 [MK145, (S)-2-amino-N-(4-((4-amino-2-butyl-1H-imidazo[4,5-c]quinolin-1-yl)methyl)benzyl)-3-methylbutanamide]",the most potent compounds,potencies that were higher or comparable to that of R848
0.05 µM,93.6 (0.1) %,98.3 (3.4) %,–,–,–,–,"CCCCc1nc2c(N)nc3ccccc3c2n1Cc1ccc(CNC(=O)[C@@H]2CCCN2)cc1 [MK140, (S)—N-(4-((4-amino-2-butyl-1H-imidazo[4,5-c]quinolin-1-yl)methyl)benzyl)pyrrolidine-2-carboxamide]",greater potencies than R848,potencies that were higher or comparable to that of R848

# More lines, now with the values behind:
Structure (SMILES),EC50 (RAW-Blue cells),"Remote loading efficiency 1 h (%) [1, 2]","Remote loading efficiency 3 h (%) [1, 3]","Remote loading efficiency 1 h (%) ([1]; formulation F3, drug/lipid ratio 0.25, 1 h)","Remote loading efficiency 3 h (%) ([1]; formulation F3, drug/lipid ratio 0.25, 3 h)","Remote loading efficiency 1 h (%) ([1]; formulation F3, drug/lipid ratio 0.50, 1 h)","Remote loading efficiency 3 h (%) ([1]; formulation F3, drug/lipid ratio 0.50, 3 h)",Potency in the RAW-Blue cell assay (RAW-Blue cells),TLR7 agonist activity (NF-κB induction) (mTLR7)
"CCCCc1nc2c(N)nc3ccccc3c2n1Cc1ccc(CNC(=O)[C@@H](N)CC(N)=O)cc1 [MK135, (S)-2-amino-N-(4-((4-amino-2-butyl-1H-imidazo [4,5-c]quinolin-1-yl)methyl)benzyl)succinamide]",0.42 µM,85.9 (4.7) %,86.4 (5.1) %,55.5 (5.7) %,65.0 (7.7) %,19.5 (0.1) %,23% and 23.3 (0.3) %,–,the lowest potency of all derivatives
"CCCCc1nc2c(N)nc3ccccc3c2n1Cc1ccc(CNC(=O)CN)cc1 [MK139, 2-amino-N-(4-((4-amino-2-butyl-1H-imidazo[4,5-c]quinolin-1-yl)methyl)benzyl)acetamide]",0.34 µM,84.7 (17.4) %,90.6 (1.6) %,–,–,–,–,–,potencies that were higher or comparable to that of R848
"CCCCc1nc2c(N)nc3ccccc3c2n1Cc1ccc(CNC(=O)[C@@H](N)CCC(N)=O)cc1 [MK136, (S)-2-amino-N-(4-((4-amino-2-butyl-1H-imidazo[4,5-c]quinolin-1-yl)methyl)benzyl)pentanediamide]",0.74 µM,2.0 (0.2) %,3.1 (0.4) %,–,–,–,–,–,the lowest potency of all derivatives
"CCCCc1nc2c(N)nc3ccccc3c2n1Cc1ccc(CNC(=O)[C@H](C)N)cc1 [MK137, (S)-2-amino-N-(4-((4-amino-2-butyl-1H-imidazo[4,5-c]quinolin-1-yl)methyl)benzyl)propanamide]",0.04 µM,98.1 (5.2) %,99.1 (1.8) %,–,–,–,–,greater potencies than R848,potencies that were higher or comparable to that of R848
